Source: patent US6303317A, “Peptide probes and methods for making the same” (The Regents of the University of California, priority 1998, dated 2001)
Where no end group is shown, it is not given here.

Tested on: APC protein
Assay: Precipitation of APC from human colon cancer cell line lysates with biotinylated probe and streptavidin particles
Type: binding
Conditions: Western blot with APC antibody
Description: Precipitation experiments were carried out in order to determine whether the anti-APCp1 polypeptide probe was capable of detecting the low in vivo levels of APC which are typically present in normal and tumor cells. FIG. 7 is a schematic representation of the strategy used. Briefly, cell lines which produce a normal (i.e., full length human APC) and mutant (i.e., truncated human APC) were lysed, and the lysate combined with either biotinylated […] or biotinylated anti-APC monoclonal antibody. Molecules bound to the biotinylated probes were collected by binding to streptavidin, and the bound molecules released from the beads followed by SDS-PAGE, blotting of the gels, and detection with a biotinylated APC antibody. […] was detected on X-ray film. These steps are elaborated in more detail as follows.
Cells were harvested at 90-100% confluency. Cells were washed twice with ice-cold Dulbecco's phosphate buffered saline (Gibco BRL) containing magnesium chloride and calcium chloride, scraped into 15 mL ice cold D-PBS and pelleted in a Beckman J-6 centrifuge for 5 minutes at 4° C. The cell pellet was resuspended in 1 mL ice-cold phosphate buffer, pH 8, containing 0.2% NP-40, 400 μg/mL of Pefabloc SC (Boehringer Mannheim) and 10 μg/mL each of leupeptin, pepstatin, and aprotinin. […]

Chain of APC protein (P25054 2-55 limits assumed): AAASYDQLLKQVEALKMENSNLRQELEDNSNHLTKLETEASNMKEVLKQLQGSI

biotinylated-anti-APCp1: N-terminally biotinylated anti-APCp1 with Met, an additional Leu8Val mutation and Glu-Asp-Glu at the C-terminus (MAAKGDQVKKEVEALEYENSNLRKKLEDHKKKLTKLKTEISNAKKMLKQLYASIEDE; not fully specified (N-terminus); also: biotin attached via a long spacer arm)
binding to / precipitation of wild-type and mutant APC at endogenous cell concentrations: precipitated truncation mutants and full-length APC at endogenous cell concentrations
